One compound from patent US20260014178A1, “COMPOSITIONS AND USES THEREOF” (Optibiotix Limited, priority 2022, published 2026) can be followed below.

Test [1] deals with gut microbiome. As to the kind of experiment: Non pH-controlled anaerobic faecal cultures, gas production. In kind it is cell-based. The conditions noted are these: 6 donors, FIG. 1. As for the experimental part: Non pH-controlled, anaerobic, faecal cultures were investigated to evaluate the rate of gas production and cumulative gas production over 24 h in the presence of each test substrate.
(§1) All carbohydrates were tested in parallel, using the same faecal sample from a healthy donor. Fermentations were repeated using the faecal samples of each of 6 donors. Faeces in the absence of test substrate were used as the negative control in each run.

Test [2] deals with gut microbiome. The experiment in a line: pH-controlled anaerobic faecal cultures, organic acid production. The format is cell-based. The conditions noted are these: FIG. 3. As for the experimental part: pH-controlled, anaerobic, faecal cultures were carried out to evaluate the impact of each test carbohydrate on gut microbiome composition and activity (organic acid production). The test carbohydrates were as follows: Inulin, Fructooligosaccharides (FOS), Xylooligosaccharides (XOS), gentiooligosaccharides (GeOS) and cellobiose.
as §1

Turning to `O=C[C@H](O)[C@@H](O)[C@H](O[C@@H]1O[C@H](CO)[C@@H](O)[C@H](O)[C@H]1O)[C@H](O)CO` [Cellobiose, cellobiose], the “rate of gas production” value in the test on gut microbiome [1] is “significantly higher compared to all test substrates”. Further, the “lactate production / accumulation” value in the test on gut microbiome [2] is listed as “high levels”.
